Laboratory results from ChEMBL document CHEMBL1201862, “PubChem BioAssay data set” (2004).
Active and inactive are the calls of the source.

Tests used:
[1] = molecular target: T1, Long-chain-fatty-acid--AMP ligase FadD28 (Mycobacterium tuberculosis, UniProt P9WQ59); experiment: Fluorescence polarization aasay to screen for inhibitors that compete for the binding of FadD28 to a bisubstrate Measured in Biochemical System Using Plate Reader - 2147-01_Inhibitor_Dose_CherryPick_Activity.; type: functional, Mycobacterium tuberculosis H37Rv
T1 sequence (P9WQ59 whole entry): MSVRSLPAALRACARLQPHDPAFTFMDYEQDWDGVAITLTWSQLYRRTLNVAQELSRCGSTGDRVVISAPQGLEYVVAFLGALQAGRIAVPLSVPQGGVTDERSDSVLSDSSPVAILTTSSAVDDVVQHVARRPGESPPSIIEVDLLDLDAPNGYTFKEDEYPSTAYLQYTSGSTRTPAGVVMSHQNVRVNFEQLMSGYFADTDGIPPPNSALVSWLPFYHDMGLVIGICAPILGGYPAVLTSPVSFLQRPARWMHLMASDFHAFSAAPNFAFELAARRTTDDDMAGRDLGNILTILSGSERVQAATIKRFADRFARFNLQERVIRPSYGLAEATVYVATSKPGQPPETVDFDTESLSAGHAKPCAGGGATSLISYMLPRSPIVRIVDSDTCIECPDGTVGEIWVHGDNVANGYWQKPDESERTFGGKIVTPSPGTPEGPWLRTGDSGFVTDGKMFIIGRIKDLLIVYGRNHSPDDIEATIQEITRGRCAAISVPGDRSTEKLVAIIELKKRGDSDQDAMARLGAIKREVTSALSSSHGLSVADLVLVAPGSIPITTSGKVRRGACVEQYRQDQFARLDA

[2] = molecular target: T2, Rac GTPase-activating protein 1 (Homo sapiens, UniProt Q9H0H5); experiment: MgcRacGAP GTPase-activating activity inhibitors, confirmation, biochemical, ADP Hunter fluorescence, primary and confirmatory (AID 624330); type: functional
T2 sequence (Q9H0H5 whole entry): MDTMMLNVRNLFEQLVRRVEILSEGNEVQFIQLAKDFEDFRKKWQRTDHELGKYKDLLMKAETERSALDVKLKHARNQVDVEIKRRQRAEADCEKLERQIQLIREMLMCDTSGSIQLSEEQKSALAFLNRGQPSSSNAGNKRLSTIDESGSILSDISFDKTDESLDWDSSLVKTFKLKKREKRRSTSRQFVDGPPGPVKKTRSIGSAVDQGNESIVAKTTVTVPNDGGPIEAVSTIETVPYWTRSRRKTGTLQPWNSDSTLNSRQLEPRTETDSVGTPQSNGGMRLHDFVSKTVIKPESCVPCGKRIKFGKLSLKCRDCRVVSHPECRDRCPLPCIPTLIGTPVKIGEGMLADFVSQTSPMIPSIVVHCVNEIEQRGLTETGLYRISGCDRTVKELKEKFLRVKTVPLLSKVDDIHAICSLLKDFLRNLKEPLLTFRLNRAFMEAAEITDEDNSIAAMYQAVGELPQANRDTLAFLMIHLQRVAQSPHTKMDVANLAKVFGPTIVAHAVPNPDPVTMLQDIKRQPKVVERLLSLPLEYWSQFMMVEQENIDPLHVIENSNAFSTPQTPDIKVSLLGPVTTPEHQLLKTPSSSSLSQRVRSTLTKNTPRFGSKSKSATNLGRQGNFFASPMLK

Large T antigen = Large T antigen (Simian virus 40, UniProt P03070); type: functional, Betapolyomavirus macacae;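 note: Confirmatory-stage PubChem screen for compounds that inhibit SV40 T antigen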
Chain of Large T antigen (P03070 whole entry): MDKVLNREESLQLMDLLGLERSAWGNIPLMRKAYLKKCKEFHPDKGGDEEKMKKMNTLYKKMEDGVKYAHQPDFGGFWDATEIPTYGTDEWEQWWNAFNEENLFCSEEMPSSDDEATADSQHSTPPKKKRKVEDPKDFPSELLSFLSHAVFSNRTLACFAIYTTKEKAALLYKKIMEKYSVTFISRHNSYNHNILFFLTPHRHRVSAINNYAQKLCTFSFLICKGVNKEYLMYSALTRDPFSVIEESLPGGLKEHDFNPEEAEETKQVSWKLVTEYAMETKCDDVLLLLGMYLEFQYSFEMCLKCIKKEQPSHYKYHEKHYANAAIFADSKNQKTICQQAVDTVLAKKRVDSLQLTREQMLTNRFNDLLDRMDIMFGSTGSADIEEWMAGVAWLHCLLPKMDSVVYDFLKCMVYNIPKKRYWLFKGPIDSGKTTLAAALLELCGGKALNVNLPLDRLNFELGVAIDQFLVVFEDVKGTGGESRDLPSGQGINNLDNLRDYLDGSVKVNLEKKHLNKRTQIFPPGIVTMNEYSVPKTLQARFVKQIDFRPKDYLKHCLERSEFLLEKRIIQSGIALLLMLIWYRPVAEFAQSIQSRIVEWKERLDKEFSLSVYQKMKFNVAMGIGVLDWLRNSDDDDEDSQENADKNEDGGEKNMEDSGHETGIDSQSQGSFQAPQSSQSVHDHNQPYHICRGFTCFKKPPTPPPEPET

BJ [3] = experiment: cytotoxicity toward BJ-TERT fibroblasts, dose response, cell-based, RAS-independent, luminescence (AID 1933); type: functional; details: Homo sapiens
cells = type: functional, cell-based
[4] = tested on: Streptococcus sp. 'group A'; experiment: growth inhibition of control SK(-) GAS strain, dose response, counter-screen for streptokinase expression inhibitor project, luminescence, kanamycin, BacTiterGlo, confirmation (AID 1900); type: functional, organism-based
[5] = Luminescence Cell-Based Dose Confirmation HTS to Identify Inhibitors of Platelet Dense Granule Release. [Related pubchem assays: 1663 (Primary HTS), 1678 (Summary of Project)]; type: functional
[6] = cytotoxicity toward DRD oncogenic fibroblasts, dose response, cell-based, non-viral oncogenic, luminescence (AID 1934); type: functional; details: Homo sapiens
BJ [7] = experiment: cytotoxicity toward BJ-TERT-LT-ST fibroblasts, dose response, cell-based, RAS-independent, luminescence (AID 1935); type: functional; details: Homo sapiens;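 note: BJ fibroblasts immortalized with TERT plus LT and ST oncogenes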
Streptokinase A = molecular target: T3, Streptokinase A (Streptococcus pyogenes serotype M1, UniProt P10520); experiment: S. pyogenes streptokinase expression inhibitors, potency, dose response, plasminogen activation absorbance, OD405 (AID 1914); type: functional, Streptococcus pyogenes M1 GAS;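 note: secreted streptokinase activity via plasminogen activation per viability signal from cell pellet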
T3 sequence (P10520 whole entry): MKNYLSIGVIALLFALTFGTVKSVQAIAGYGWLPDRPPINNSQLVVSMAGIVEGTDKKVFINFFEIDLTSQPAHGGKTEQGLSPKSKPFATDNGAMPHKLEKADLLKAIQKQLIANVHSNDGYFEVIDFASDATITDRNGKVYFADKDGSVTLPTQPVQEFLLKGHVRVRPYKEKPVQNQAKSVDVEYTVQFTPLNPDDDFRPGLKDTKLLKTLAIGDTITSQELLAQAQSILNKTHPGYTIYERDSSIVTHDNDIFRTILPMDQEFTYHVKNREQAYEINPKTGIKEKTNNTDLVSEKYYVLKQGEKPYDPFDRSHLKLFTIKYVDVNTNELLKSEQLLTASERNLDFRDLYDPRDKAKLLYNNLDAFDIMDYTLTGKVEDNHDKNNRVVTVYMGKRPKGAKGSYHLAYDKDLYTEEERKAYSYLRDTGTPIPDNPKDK

[8] = molecular target: T4, Nuclear receptor subfamily 0 group B member 1 (Homo sapiens, UniProt P51843); type: functional, cell-based;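 note: HEK293T cells transfected with SF-1 and DAX-1 plus StAR promoter luciferase reporter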
T4 sequence (P51843 whole entry): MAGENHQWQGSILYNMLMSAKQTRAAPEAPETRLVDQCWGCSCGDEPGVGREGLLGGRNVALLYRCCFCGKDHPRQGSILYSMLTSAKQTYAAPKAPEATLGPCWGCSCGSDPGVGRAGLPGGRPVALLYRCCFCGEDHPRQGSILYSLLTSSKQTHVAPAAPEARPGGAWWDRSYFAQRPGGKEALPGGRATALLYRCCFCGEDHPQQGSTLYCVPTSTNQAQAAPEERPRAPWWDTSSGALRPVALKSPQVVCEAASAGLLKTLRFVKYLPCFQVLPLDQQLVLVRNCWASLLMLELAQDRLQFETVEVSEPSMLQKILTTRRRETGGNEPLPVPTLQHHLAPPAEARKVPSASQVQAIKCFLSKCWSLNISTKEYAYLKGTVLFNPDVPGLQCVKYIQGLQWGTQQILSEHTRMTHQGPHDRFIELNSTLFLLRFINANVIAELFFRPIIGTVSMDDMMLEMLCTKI

Streptococcus = experiment: Group A Streptococcus viability loss, dose response, counter-screen for streptokinase expression inhibitor project, luminescence, BacTiterGlo (AID 1915); type: functional, organism-based;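 note: potency for reduction of bacterial viability or growth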
[9] = molecular target: Luciferin 4-monooxygenase (Photinus pyralis, UniProt P08659); experiment: firefly luciferase enzyme inhibitors, dose response, biochemical, luminescence (AID 1891)
Chain of Luciferin 4-monooxygenase (P08659 whole entry): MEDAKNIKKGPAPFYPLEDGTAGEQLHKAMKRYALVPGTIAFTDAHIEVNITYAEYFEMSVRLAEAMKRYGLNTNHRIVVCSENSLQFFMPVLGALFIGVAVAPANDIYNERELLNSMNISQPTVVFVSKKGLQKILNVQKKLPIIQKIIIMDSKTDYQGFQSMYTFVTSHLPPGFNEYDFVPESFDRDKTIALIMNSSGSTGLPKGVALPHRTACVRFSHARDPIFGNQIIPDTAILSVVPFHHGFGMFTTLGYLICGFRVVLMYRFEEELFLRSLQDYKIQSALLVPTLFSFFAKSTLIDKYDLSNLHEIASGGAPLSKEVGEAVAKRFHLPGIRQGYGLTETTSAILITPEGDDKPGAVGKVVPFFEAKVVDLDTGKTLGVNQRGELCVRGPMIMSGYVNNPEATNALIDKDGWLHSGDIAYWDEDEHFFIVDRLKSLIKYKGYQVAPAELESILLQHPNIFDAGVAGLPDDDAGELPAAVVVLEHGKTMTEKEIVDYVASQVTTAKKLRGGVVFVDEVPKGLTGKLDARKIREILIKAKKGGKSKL

BJ [10] = experiment: cells; type: functional, cell-based; details: Homo sapiens
[11] = molecular target: T5, Zinc finger protein mex-5 (Caenorhabditis elegans, UniProt Q9XUB2); experiment: MEX-5/TCR-2 RNA interaction inhibitors, dose response, biochemical, C. elegans, fluorescence polarization (AID 1960)
T5 sequence (Q9XUB2 whole entry): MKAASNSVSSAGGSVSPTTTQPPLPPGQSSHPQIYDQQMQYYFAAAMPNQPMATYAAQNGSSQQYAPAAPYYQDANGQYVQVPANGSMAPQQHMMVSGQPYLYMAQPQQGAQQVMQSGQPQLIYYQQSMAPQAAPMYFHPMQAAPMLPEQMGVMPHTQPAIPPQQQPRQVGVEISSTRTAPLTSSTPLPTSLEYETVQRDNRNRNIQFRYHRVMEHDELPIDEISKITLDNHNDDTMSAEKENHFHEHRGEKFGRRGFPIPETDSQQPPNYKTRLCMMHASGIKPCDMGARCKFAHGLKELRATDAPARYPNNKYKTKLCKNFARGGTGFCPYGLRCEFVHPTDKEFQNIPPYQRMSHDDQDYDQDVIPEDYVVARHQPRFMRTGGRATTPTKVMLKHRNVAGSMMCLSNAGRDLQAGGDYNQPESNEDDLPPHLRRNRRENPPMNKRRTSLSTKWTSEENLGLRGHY

[12] = molecular target: T6, RNA-binding protein pos-1 (Caenorhabditis elegans, UniProt G5EF15); experiment: inhibitors of POS-1/mex-3 RNA binding, dose response, biochemical, fluorescence polarization (AID 1964);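 note: purified POS-1 fused to maltose binding protein made in E. coli; potency of compounds blocking POS-1 binding to fluorescent RNA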
T6 sequence (G5EF15 whole entry): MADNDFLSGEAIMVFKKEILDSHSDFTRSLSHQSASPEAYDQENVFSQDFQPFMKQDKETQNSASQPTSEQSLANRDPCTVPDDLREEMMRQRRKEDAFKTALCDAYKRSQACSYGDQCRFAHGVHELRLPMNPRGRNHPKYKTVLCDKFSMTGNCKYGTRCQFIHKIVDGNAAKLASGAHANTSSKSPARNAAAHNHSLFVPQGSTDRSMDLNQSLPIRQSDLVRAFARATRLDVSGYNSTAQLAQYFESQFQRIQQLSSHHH

[13] = molecular target: 5-hydroxytryptamine receptor 2A (Mus musculus, UniProt P35363); type: functional, cell-based;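 note: CHO-K1 cells with tagged receptor and beta-arrestin; agonist potency measured as compound-induced activation of the receptor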
Chain of 5-hydroxytryptamine receptor 2A (P35363 whole entry): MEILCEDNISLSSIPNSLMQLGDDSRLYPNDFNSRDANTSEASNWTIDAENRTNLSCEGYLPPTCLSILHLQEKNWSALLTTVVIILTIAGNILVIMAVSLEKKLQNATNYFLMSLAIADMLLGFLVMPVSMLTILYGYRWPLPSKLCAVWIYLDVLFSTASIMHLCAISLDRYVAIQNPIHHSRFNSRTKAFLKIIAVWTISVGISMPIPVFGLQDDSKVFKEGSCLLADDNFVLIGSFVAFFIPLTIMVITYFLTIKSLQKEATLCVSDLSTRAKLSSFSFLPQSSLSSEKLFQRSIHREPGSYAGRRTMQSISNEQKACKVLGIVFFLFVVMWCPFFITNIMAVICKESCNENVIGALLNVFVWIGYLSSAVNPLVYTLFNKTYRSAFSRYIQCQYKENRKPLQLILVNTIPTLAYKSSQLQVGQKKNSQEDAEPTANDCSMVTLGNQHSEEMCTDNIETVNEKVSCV

[14] = molecular target: T7, Heat shock factor protein 1 (Mus musculus, UniProt P38532); experiment: HSF1 potentiators in luciferase reporter cells, confirmation, cell-based, NIH3T3, luminescence, dose retest (AID 435004); type: functional;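 note: stress induced by proteasome inhibitor MG132 added 30 min after compound; luciferase reporter driven by HSF1 response element in NIH3T3 cells; actives raise luminescence as potentiators of the MG132 stress response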
T7 sequence (P38532 whole entry): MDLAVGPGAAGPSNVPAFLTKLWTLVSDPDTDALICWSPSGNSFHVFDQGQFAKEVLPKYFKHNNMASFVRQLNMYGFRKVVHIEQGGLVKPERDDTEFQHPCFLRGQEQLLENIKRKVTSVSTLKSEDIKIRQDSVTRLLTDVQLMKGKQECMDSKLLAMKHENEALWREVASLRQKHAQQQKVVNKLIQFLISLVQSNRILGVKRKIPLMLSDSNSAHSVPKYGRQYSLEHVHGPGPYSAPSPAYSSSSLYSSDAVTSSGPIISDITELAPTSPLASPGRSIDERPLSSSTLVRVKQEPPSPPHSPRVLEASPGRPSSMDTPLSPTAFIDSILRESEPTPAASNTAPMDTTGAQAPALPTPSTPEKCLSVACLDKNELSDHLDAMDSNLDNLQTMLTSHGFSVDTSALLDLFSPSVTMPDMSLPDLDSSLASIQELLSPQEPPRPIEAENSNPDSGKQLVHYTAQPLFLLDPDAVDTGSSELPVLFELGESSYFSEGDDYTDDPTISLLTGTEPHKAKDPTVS

Mu-type opioid receptor = Mu-type opioid receptor (Homo sapiens, UniProt P35372); type: functional, cell-based;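 note: U2OS cells with beta-arrestin recruitment to OPRM1 by beta-gal complementation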
Chain of Mu-type opioid receptor (P35372 whole entry, the tested form may be a part): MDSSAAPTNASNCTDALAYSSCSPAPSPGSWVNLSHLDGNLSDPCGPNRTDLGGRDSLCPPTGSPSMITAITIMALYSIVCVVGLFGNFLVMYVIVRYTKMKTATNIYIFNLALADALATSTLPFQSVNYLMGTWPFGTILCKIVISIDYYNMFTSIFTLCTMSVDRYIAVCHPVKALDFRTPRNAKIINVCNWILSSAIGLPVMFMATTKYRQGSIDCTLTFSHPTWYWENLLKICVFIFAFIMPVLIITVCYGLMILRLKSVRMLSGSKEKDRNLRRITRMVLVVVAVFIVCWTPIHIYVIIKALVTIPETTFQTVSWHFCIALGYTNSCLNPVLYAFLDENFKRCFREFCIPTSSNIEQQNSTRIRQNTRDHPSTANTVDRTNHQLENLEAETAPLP

[15] = inhibitors of HIV Env-driven cell fusion, dose response, cherry-pick (AID 652057); type: functional, cell-based
[16] = ZM109 Env clade C HIV-1 fusion inhibitors, dose response, HeLa effector, CEM target cells, luciferase, cherry-pick (AID 652058); type: functional, cell-based
[17] = inhibitors of clade B AD8 Env fusion, dose response, cell-based, cherry-pick (AID 652062); type: functional;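 note: luciferase signal from cell-cell fusion driven by HIV-1 clade B AD8 Env; potency is for inhibitors of fusion seen as a drop in luminescence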
[18] = CEM21 lymphoblast cell cytotoxicity, dose response, cytotoxicity control for viral fusion inhibitor project, CellTiter-Glo luminescence, cherry-picked (AID 652042); type: functional, cell-based;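 note: potency for signal decrease meaning cytotoxicity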
[19] = off-target signal loss in HeLa-CEM21 co-culture – HeLa F-luc CTL cells, cherry-picked, counter-screen for HIV-1 Env fusion inhibitor project, dose response (AID 652040); type: functional, cell-based;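 note: potency for signal decrease marking cytotoxic or nonspecific inhibition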
[20] = molecular target: FAD-linked sulfhydryl oxidase ALR (Homo sapiens, UniProt P55789); experiment: inhibitors of human ALR sulfhydryl oxidase, dose response, biochemical, H2O2 detection, luminescence, cherry-pick (AID 493248)
Chain of FAD-linked sulfhydryl oxidase ALR (P55789 whole entry): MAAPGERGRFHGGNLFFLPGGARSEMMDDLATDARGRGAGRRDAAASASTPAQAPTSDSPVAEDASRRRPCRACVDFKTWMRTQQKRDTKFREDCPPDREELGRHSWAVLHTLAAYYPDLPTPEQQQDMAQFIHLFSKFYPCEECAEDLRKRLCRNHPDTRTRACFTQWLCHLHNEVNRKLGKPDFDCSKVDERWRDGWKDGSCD

OC1CCN(C(S)=Nc2ccc(Nc3ccccc3)cc2)CC1
AC50 [1]: > 100 µM (inactive)
IC50 [2]: 38.7 µM (active)
IC50 (Large T antigen): 6.93 µM (active)

O=Nc1c2cc(-c3ccccc3)n[nH]c-2c2ccccc12
EC50 (BJ [3]): 6.53 µM (active)
IC50 (cells): > 67.5 µM (inactive)
EC50 [4]: 5.57 µM (active)
EC50 [5]: 1.47 µM (active)
EC50 [6]: 4.14 µM (active)
EC50 (BJ [7]): > 150 µM (not active)
EC50 (Streptokinase A): > 150 µM (not active)
IC50 [8]: > 0.833 µM (active)
EC50 (Streptococcus): 14.7 µM (active)
EC50 [9]: 0.222 µM (active)
EC50 (BJ [10]): 6.29 µM (active)

Cc1cccc(NC(=O)CN2C(=O)N/C(=C\c3cccn3-c3cccc(C(=O)O)c3)C2=O)c1
AC50 [1]: > 100 µM (inactive)
EC50 [11]: > 300 µM (not active)
EC50 [12]: > 300 µM (not active)

OCC1(Cc2cccc(C(F)(F)F)c2)CCN(Cc2cc3ccccc3o2)CC1
EC50 [13]: 3.6 µM (active)
EC50 [14]: > 260 µM (inactive)
EC50 (Mu-type opioid receptor): 92.5 µM (inactive)

O=C(CSc1cccc[n+]1[O-])c1ccc(-c2ccccc2)cc1
IC50 (cells): > 67.5 µM (inactive)
IC50 [8]: > 67.5 µM (inactive)

COc1cccc(CN2CCN(c3ncccn3)CC2)c1OC
EC50 [13]: 21.6 µM (inactive)
EC50 (Mu-type opioid receptor): 92.5 µM (inactive)

Cc1cnc(C)c(Nc2nc(C(N)Cc3ccc(C(F)(F)F)cc3)cs2)n1 (stereo not drawn)
AC50 [15]: 5.44 µM (active)
AC50 [16]: 10.5 µM (active)
AC50 [17]: 7.29 µM (active)
AC50 [18]: 18.1 µM (active)
AC50 [19]: 5.07 µM (active)

C(=C\c1ccccc1)/CN1CCN(C(c2nnnn2-c2ccc3c(c2)OCCO3)C2CC2)CC1 (stereo not drawn)
EC50 [13]: 76 µM (inactive)
EC50 (Mu-type opioid receptor): 92.3 µM (inactive)

O=C(O)c1cccc2c1-c1ccccc1/C2=N\Nc1ccccc1
AC50 [1]: > 100 µM (inactive)
AC50 [20]: 0.264 µM (active)
